Test results: US20120272401A1 (priority 2009, published 2012)

Legend:
AtABCG25 protein = molecular target: T1, AtABCG25 protein (Arabidopsis thaliana, UniProt Q84TH5, L179I); assay type: biochemical; conditions: for Promotion of ABA uptake by nucleotide (energy dependence): 4 mM of the indicated nucleotide; for Inhibition of ATP-dependent ABA uptake by nucleotide: 4 mM of the indicated nucleotide in addition to ATP
T1 construct: Full-length cDNA of the AtABCG25 (Atlg71960) gene was obtained from the RIKEN BioResource Center; made in house; host or cells: Sf9 insect cells (Spodoptera frugiperda), BaculoGold baculovirus system; membrane vesicles
T1 sequence (Q84TH5 whole entry L179I): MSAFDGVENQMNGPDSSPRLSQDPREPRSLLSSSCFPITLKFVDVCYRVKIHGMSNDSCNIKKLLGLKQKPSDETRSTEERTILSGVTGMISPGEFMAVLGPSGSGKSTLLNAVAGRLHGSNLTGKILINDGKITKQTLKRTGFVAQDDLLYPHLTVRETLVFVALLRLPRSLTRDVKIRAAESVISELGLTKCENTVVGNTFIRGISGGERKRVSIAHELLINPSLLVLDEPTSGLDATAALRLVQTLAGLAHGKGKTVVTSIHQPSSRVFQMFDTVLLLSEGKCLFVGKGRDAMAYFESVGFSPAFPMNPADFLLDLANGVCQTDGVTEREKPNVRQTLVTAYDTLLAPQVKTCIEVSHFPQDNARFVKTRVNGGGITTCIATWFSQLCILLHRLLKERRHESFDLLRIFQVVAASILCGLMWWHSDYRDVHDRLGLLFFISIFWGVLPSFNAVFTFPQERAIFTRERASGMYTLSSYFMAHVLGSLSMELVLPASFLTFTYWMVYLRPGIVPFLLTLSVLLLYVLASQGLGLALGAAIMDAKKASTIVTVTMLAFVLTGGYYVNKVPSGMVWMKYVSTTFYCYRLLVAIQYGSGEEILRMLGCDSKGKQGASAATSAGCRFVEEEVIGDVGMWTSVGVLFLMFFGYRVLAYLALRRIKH
Procedure: Such activity is measured using the vesicle transport assay method described in the Examples below. […] The candidate of ABA transporter protein is expressed in such cell membrane. The membrane comprises inside-out membrane vesicles in which the inside and the outside are inverted.
A BaculoGold™ baculovirus expression vector system (BD PharMingen) was used to prepare the recombinant baculovirus. Sf9 insect cells (Spodoptera frugiperda) were infected with the virus and cultured in SF900-SFM medium (Invitrogen) at 27° C. for 72 hours in a shaking incubator. Cells were collected by centrifugation at 1,100×g for 10 minutes and then disrupted by nitrogen cavitation in 150 mM NaCl. 3 mM CaCl2, 2 mM MgCl2, 0.1 mM EGTA, and 10 mM Tris-HCl (pH 7.4). Undisrupted cells, nuclear debris, and mitochondria were pelleted by centrifugation at 2,600×g for 10 minutes. The supernatant was centrifuged at 100,000×g for 30 minutes, and the pellet was resuspended in 70 mM KCl, 7.5 mM MgCl2, and 50 mM MOPS-Tris (pH 7.0). Membrane vesicles were stored by freezing in a deep freezer until use. Concentration of the protein was measured using the BCA protein assay kit (Pierce) with bovine serum albumin as a control. To confirm the production of the AtABCG25 proteins in the Sf9 cells by Western blot analysis, an anti-AtABCG25 antibody was obtained by immunizing a rabbit with a synthetic peptide (Operon Biotechnologies). This synthetic peptide consisted of 3 types of 12 to 14 amino acid residues from the Arabidopsis AtABCG25 protein, designed based on positions 69 to 82 ([…]), positions 132 to 143 ([…]), and positions 328 to 340 ([…]). Membrane proteins were solubilized using 4% SDS and subjected to 10% SDS-PAGE. Proteins were transferred to a polyvinylidene difluoride membrane and probed using a rabbit anti-AtABCG25 antibody and horseradish-peroxidase-conjugated donkey anti-rabbit IgG. Specific immunoreactive proteins were detected by exposure to an autoradiography film using a chemiluminescence detection system (ECL-plus, Amersham Biosciences).
An experiment of membrane transport was carried out using the rapid filtration technique (Otsuka, M. et al., 2005, Proc. Natl. Acad. Sci., U.S.A., 102: 17923-17928). […] The transport medium was passed through a 0.45-μm nitrocellulose filter (Millipore), and the filter was washed with 6 ml of ice-cooled stop buffer (70 mM KCl, 7.5 mM MgCl2, 50 mM MOPS-Tris, pH 7.0). The radioactivity retained on the filter was determined using a liquid scintillation counter (Tri-Carb2800TRs; PerkinElmer). Membrane vesicles from Sf9 cells containing only the vector were used as the controls.

[1] = system: CC1=CC(=O)CC(C)(C)C1(O)/C=C/C(C)=C\C(=O)O; test: cells, lysate or membranes named; conditions: other: membrane vesicles expressing AtABCG25, ATP-dependent uptake measured for 15 seconds at indicated ABA concentrations; 27.0 °C
[2] = system: AtABCG25 promoter (pAtABCG25::GUS reporter); test: GUS staining of pAtABCG25::GUS transgenic plants after ABA treatment; assay type: in vivo, Arabidopsis; conditions: 10 μM ABA
Procedure: RNA was extracted from Arabidopsis plants for RT-PCR using the RNeasy Plant Mini Kit (Qiagen). RT-PCR was carried out using AtABCG25_RT-PCR—5′ (5′-[…]-3′ (SEQ ID NO: 8)) and AtABCG25_RT-PCR—3′ (5′-[…]-3′ (SEQ ID NO: 9)) primers with the PrimeScript One Step RT-PCR kit (Takara Bio). The Actin2 transcript as a control was amplified using Actin2RT-F (5′-[…]-3′ (SEQ ID NO: 10)) and Actin2RT-R (5″-[…]-3′ (SEQ ID NO: 11)) primers. GUS staining was carried out according to the standard protocol (Sundaresan, V. et al., 1995, Genes Dev9: 1797-1810). The plants stained with GUS were observed under a SZ61 stereoscopic microscope (Olympus), and digital images were obtained using the DS-L1 CCD digital camera (Nikon). Finer images were photographed using a BX60 upright microscope (Olympus) and a VB-7010 CCD camera (Keyence). For transgenic lines to be examined for GUS expression from the AtABCG25 promoter a 2-kb AtABCG25 promoter region was prepared by amplifying the region using AtABCG25pro_Forward (5′-[…]-3′ (SEQ ID NO: 12)) and AtABCG25pro_Reverse (5′-[…]-3′ (SEQ ID NO: 13)) primers with KOD-plus polymerase (Toyobo), cloning the amplified product into the pENTR/D/TOPO vector (Invitrogen), and integrating the resultant into the GUS-fusion vector pBGGUS (Kubo, M. et al., 2005, Genes Dev 19: 1855-1860).

[O]=[V]([O-])([O-])[O-] [Vanadate] was tested, and the “Inhibition of ATP-dependent ABA uptake by vanadate” value (AtABCG25 protein; 1 mM vanadate in addition to ATP) was “inhibited”.
For CC1=CC(=O)CC(C)(C)C1(O)/C=C/C(C)=C\C(=O)O (single isomer, unassigned; (-)) [(−)ABA], the “Cis-inhibition of ATP-dependent ABA uptake (substrate specificity)” value (AtABCG25 protein; in the presence of ATP and compound, (+)ABA at a 10-fold concentration) was “not influenced”.
With Nc1ncnc2c1ncn2[C@@H]1O[C@H](COP(=O)(O)OP(=O)(O)O)[C@@H](O)[C@H]1O [ADP] the “Promotion of ABA uptake by nucleotide (energy dependence)” value (shortened to “Promotion of ABA uptake by nucleotide”) (AtABCG25 protein) was “neither ADP nor AMP promoted” and the “Inhibition of ATP-dependent ABA uptake by nucleotide” value (AtABCG25 protein) was “inhibited”.
Nc1ncnc2c1ncn2[C@@H]1O[C@H](COP(=O)(O)OP(=O)(O)OP(=O)(O)O)[C@@H](O)[C@H]1O [ATP, adenosine triphosphate] was tested, and the “Promotion of ABA uptake by nucleotide” value (AtABCG25 protein) was “significantly promoted”.
In the case of “AtABCG25 protein (Arabidopsis thaliana; L179I)”, the Km [1] is reported as 0.23 µM and the Vmax [1] is reported as 6.2 μmol/min/mg protein.
With Nc1ncnc2c1ncn2[C@@H]1O[C@H](COP(=O)(O)O)[C@@H](O)[C@H]1O [AMP] the “Promotion of ABA uptake by nucleotide” value (AtABCG25 protein) was “neither ADP nor AMP promoted” and the “Inhibition of ATP-dependent ABA uptake by nucleotide” value (AtABCG25 protein) was “did not exhibit any inhibitory effect”.
CC1=CC(=O)CC(C)(C)C1(O)/C=C/C(C)=C\C(=O)O (racemic) [ABA, abscisic acid] was tested, and the “ABA uptake in the presence of ATP, full activity (100%)” value (AtABCG25 protein; at 15 seconds, in the presence of ATP, no competing compound) was 8.3 μmol/mg protein and the “Expression level of the GUS reporter after ABA treatment” value [2] was “increased”.
